In data set [1] the target is T1, Receptor-type tyrosine-protein kinase FLT3 (Homo sapiens, UniProt P36888).
T1 sequence (P36888 whole entry): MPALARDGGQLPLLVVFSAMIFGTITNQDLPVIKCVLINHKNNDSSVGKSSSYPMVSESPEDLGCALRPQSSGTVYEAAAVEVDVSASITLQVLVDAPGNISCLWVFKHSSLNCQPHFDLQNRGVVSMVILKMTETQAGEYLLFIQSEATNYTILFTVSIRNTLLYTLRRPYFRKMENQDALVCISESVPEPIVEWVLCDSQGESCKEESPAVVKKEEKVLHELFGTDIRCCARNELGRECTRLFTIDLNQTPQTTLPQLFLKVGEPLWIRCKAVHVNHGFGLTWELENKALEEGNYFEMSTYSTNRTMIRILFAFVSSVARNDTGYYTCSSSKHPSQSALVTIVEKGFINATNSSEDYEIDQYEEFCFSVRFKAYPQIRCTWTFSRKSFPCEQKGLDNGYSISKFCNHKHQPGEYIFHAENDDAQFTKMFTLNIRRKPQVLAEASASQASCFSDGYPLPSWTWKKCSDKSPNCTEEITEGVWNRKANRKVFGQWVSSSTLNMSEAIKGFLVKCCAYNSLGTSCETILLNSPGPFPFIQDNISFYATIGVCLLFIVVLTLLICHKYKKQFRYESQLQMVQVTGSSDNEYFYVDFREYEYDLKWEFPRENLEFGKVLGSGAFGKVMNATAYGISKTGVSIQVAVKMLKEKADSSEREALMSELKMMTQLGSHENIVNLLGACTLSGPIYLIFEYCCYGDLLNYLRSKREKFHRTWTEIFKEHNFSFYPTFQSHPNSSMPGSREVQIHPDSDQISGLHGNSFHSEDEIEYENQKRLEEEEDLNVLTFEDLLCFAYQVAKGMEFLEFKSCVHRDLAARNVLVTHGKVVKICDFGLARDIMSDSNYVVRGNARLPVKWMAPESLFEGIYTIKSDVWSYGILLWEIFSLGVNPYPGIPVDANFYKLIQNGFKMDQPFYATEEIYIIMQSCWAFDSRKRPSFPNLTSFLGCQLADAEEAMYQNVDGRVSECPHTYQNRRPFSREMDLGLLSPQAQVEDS
The experiment in a line: Inhibition of FLT3 phosphorylation by cell based assay.

Data set [2] concerns the target Vascular endothelial growth factor receptor 2 (Homo sapiens) (UniProt P35968). The data set can be described thus: Inhibition of VEGFR2 phosphorylation by cell based assay.
The target in data set [3] is Platelet-derived growth factor receptor alpha (Homo sapiens) (UniProt P16234). The data set can be described thus: Inhibition of PDGFRalpha phosphorylation by cell based assay.
Platelet-derived growth factor receptor alpha (Homo sapiens), sequence (P16234 whole entry): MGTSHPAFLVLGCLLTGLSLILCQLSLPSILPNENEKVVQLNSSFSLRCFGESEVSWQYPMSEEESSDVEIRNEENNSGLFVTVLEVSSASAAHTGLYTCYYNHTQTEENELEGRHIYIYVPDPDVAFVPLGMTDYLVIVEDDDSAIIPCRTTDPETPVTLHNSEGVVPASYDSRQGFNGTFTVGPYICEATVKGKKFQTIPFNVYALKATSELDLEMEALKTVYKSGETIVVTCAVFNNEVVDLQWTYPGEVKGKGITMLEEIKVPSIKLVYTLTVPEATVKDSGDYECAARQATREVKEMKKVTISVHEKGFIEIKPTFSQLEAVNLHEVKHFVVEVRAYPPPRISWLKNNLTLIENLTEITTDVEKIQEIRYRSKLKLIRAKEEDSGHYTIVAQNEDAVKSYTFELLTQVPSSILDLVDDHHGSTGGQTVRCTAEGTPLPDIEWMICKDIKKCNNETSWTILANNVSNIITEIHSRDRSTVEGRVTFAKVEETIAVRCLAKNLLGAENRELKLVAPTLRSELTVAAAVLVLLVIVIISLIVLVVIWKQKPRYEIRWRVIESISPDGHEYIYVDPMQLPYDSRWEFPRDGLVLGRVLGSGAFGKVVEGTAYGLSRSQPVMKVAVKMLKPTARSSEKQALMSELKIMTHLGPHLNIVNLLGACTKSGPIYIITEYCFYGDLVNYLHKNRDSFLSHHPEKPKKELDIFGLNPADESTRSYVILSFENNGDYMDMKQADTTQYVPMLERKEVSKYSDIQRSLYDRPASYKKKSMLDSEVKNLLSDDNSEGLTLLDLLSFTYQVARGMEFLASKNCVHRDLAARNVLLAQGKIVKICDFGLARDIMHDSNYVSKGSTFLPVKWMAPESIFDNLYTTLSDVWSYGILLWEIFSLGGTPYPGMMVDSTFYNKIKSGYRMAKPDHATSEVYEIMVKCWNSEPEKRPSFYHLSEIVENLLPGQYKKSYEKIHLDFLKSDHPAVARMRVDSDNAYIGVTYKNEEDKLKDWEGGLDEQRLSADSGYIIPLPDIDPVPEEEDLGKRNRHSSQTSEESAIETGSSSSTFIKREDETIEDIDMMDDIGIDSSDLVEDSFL
Data set [4] addresses Platelet-derived growth factor receptor beta (Homo sapiens, UniProt P09619). The data set can be described thus: Inhibition of PDGFRbeta phosphorylation by cell based assay.
Data set [5] deals with Macrophage colony-stimulating factor 1 receptor (Homo sapiens, UniProt P07333). The experiment in a line: Inhibition of CSF1R phosphorylation by cell based assay.
Macrophage colony-stimulating factor 1 receptor, sequence (P07333 whole entry): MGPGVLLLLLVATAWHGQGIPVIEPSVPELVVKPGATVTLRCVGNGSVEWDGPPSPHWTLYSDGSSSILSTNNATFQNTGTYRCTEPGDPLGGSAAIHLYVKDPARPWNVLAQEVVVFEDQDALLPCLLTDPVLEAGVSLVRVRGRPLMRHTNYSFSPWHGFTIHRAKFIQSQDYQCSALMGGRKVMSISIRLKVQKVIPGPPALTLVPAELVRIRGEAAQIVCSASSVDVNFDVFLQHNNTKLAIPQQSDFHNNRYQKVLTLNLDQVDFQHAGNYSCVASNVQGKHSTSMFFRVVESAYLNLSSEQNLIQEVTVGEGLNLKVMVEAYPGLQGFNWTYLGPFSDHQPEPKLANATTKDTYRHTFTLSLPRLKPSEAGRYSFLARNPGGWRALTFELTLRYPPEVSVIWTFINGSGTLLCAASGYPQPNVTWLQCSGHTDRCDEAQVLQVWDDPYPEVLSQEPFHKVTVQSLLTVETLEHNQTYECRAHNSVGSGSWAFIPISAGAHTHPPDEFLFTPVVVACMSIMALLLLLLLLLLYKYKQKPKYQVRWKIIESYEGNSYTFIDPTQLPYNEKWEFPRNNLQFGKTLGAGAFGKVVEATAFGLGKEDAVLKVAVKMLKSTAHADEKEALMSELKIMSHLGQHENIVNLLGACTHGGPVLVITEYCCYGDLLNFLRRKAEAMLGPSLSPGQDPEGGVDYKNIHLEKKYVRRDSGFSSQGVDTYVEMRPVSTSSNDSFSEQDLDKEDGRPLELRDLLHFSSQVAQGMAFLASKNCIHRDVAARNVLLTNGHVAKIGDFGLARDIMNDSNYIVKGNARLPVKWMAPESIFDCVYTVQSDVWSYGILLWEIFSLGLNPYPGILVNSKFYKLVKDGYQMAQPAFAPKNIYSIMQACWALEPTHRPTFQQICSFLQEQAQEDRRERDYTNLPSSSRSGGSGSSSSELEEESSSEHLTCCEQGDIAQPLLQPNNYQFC
Data set [6] can be described thus: Chemical stability of the compound at pH 1. The format is physicochemical. Particulars: buffer.
Data set [7] is described as follows: Oral bioavailability in rat. In kind it is ADME, organism-based. The note with it: in vivo.

Structures are written as SMILES. Calls of active or inactive are those of the source. The calls are words filed in the database; no cut-off is given here.

Broadly, the IC50 is the concentration needed to halve the response being measured. A low value points to inhibition by little substance. Usually bioavailability stands for dose-corrected exposure relative to a reference, in per cent. A lower bioavailability goes with little systemic uptake.

Platelet-derived growth factor receptor beta, sequence (P09619 whole entry): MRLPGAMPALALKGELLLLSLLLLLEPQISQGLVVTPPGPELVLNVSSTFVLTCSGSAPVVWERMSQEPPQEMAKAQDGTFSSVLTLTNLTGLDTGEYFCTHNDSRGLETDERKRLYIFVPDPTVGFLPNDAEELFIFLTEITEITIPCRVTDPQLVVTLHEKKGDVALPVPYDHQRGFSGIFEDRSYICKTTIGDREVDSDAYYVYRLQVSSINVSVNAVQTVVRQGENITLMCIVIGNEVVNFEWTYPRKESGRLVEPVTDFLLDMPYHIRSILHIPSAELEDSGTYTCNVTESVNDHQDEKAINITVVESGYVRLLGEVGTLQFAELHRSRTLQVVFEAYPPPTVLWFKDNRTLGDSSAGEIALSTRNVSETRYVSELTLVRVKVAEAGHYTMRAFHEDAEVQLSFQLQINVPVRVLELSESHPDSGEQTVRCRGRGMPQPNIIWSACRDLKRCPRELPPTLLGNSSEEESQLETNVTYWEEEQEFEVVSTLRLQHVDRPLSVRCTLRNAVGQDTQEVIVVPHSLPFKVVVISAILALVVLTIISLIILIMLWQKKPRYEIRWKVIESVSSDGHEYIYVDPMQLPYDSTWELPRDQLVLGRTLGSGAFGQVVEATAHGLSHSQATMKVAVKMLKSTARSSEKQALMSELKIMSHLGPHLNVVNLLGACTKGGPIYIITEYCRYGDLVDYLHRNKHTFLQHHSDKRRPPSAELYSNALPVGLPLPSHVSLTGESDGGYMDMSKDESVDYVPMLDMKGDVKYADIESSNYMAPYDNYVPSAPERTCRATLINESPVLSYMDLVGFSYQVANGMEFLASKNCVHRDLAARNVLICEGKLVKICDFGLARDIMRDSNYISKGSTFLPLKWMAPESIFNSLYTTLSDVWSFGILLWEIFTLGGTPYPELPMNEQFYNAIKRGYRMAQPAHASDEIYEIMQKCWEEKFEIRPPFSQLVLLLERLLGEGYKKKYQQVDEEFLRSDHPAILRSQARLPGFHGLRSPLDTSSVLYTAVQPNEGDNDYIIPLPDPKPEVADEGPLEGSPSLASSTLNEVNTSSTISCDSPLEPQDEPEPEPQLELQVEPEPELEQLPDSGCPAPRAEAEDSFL

Consider `COc1cc2ncnc(Oc3ccc(CC(=O)Nc4cnn(C)c4)cc3)c2cc1OC`, for which the IC50 in data set [1] is 80 nM; in data set [2] it was 667 nM; in data set [4], 40 nM; in data set [5], greater than 1000 nM. In addition, in data set [3], the inhibition entry is “Active”.
Take `CCn1cc(NC(=O)Cc2ccc(Oc3ccnc4cc(OC)c(OC)cc34)cc2)cn1`: the IC50 in data set [1] worked out at 4 nM; in data set [2] it was 12 nM; in data set [4] it was 0.4 nM; in data set [5] it was 40 nM. Further, the inhibition result in data set [3] is “Active”.
The matching figures for `COc1cccc(NC(=O)Cc2ccc(Oc3ncnc4cc(OC)c(OC)cc34)cc2)c1`: 7 nM, 8 nM, 0.9 nM, 300 nM and “Active”.
As for `COc1cccc(NC(=O)Cn2cc(Oc3ncnc4cc(OC)c(OC)cc34)cn2)c1`, the IC50 in data set [1] is 2 nM; in data set [2], 0.4 nM; in data set [4], 0.8 nM; in data set [5] it was 10 nM. Further, in data set [3], the inhibition result was “Active”. In data set [6], this compound yielded a Stability of 0.1 days. The compound also displayed a bioavailability in data set [7] of less than 20%.
With `COc1cccc(CC(=O)Nc2ccc(Oc3ncnc4cc(OC)c(OC)cc34)cc2)c1`, the IC50 in data set [1] came to 10 nM; in data set [2], 209 nM; in data set [4], 4 nM; in data set [5], 30 nM. For the same compound, in data set [3], the inhibition entry is “Active”.
Consider `COc1cccc(CNC(=O)c2ccc(Oc3ncnc4cc(OC)c(OC)cc34)cc2)c1`, for which the IC50 was greater than 400 nM in data set [1], 3060 nM in data set [2], 700 nM in data set [4] and greater than 1000 nM in data set [5]. Besides, the inhibition entry in data set [3] was “Active”.
Regarding `COc1cccc(NC(=O)Cn2cc(Oc3ccnc4cc(OC)c(OC)cc34)cn2)c1`, the IC50 came out at 20 nM in data set [1], 57 nM in data set [2], 2 nM in data set [4] and 40 nM in data set [5]. The inhibition result in data set [3] is “Active”. In data set [6], this compound showed a Stability of 0.1 days. This compound had a bioavailability in data set [7] of less than 20%.
Turning to `COc1cc2ncnc(Nc3cnn(CC(=O)Nc4ccc(N(C)C)cn4)c3)c2cc1OC`, the IC50 in data set [1] is 10 nM; in data set [2] it was 453 nM; in data set [4] it was greater than 200 nM; in data set [5], greater than 1000 nM. Also, the inhibition entry in data set [3] is “Active”. Besides, the Stability in data set [6] is 0.1 days. In addition, in data set [7], the bioavailability is less than 20%.
As to `CCc1cc(NC(=O)Cc2ccc(Oc3ncnc4cc(OC)c(OC)cc34)cc2)n[nH]1`, the IC50 was 5 nM in data set [1], less than 5 nM in data set [2], 4 nM in data set [4] and greater than 600 nM in data set [5]. In addition, the inhibition result in data set [3] is “Active”.
The matching figures for `COc1cccc(NC(=O)Cc2cccc(Oc3ncnc4cc(OC)c(OC)cc34)c2)c1`: greater than 1000 nM, 1010 nM, 300 nM, greater than 1000 nM and “Active”.
For the compound `CCn1cc(NC(=O)Cn2cc(Oc3ncnc4cc(OC)c(OC)cc34)cn2)cn1`, the IC50 turned out to be 4 nM in data set [1], 35 nM in data set [2], 4 nM in data set [4] and 200 nM in data set [5]. For the same compound, the inhibition result in data set [3] is “Active”. The compound further returned a Stability in data set [6] of 0.1 days. Moreover, the bioavailability in data set [7] was less than 20%.
`CCn1ccc(NC(=O)Cc2ccc(Oc3ncnc4cc(OC)c(OC)cc34)cc2)n1`: the IC50 in data set [1] was 20 nM; in data set [2], 172 nM; in data set [4], 10 nM; in data set [5] it was greater than 1000 nM. In addition, the inhibition result in data set [3] was “Active”.
As for `COCCOc1cc2c(Oc3cnn(CC(=O)Nc4cccc(OC)c4)c3)ncnc2cc1OC`, the IC50 was 3 nM in data set [1], less than 5 nM in data set [2], 2 nM in data set [4] and 90 nM in data set [5]. For the same compound, the inhibition result in data set [3] is “Active”. Also, in data set [6], the Stability is 0.1 days. In data set [7], this compound came in with a bioavailability of less than 20%.
Turning to `COCCOc1cc2ncnc(Oc3cnn(CC(=O)Nc4cccc(OC)c4)c3)c2cc1OC`, the IC50 is 2 nM in data set [1], 0.2 nM in data set [2], 0.3 nM in data set [4] and 8 nM in data set [5]. Further, the inhibition entry in data set [3] is “Active”. This compound also registered a Stability in data set [6] of 0.1 days. For the same compound, the bioavailability in data set [7] was less than 20%.
`COc1cc2ncnc(Oc3ccc(CC(=O)Nc4ccc(N(C)C)cn4)cc3)c2cc1OC`: the IC50 in data set [1] came out at 9 nM; in data set [2], 22 nM; in data set [4] it was 5 nM; in data set [5], 600 nM. The inhibition entry in data set [3] was “Active”.
With `COc1cccc(NC(=O)Cn2cc(Oc3ncnc4cc(OC)cc(OC)c34)cn2)c1`, the IC50 in data set [1] amounted to 5 nM; in data set [2], 30 nM; in data set [4], 2 nM; in data set [5] it was 100 nM. The inhibition entry in data set [3] is “Active”. The compound also gave a Stability in data set [6] of 0.1 days. In data set [7], this compound showed a bioavailability of less than 20%.
On to `COc1cccc(NC(=O)Cn2cc(Oc3ncnc4cc(OCCN5CCCC5)c(OC)cc34)cn2)c1`, for which the IC50 in data set [1] was 5 nM; in data set [2], 7 nM; in data set [4] it was 1 nM; in data set [5] it was 30 nM. Also, in data set [3], the inhibition entry is “Active”. In data set [6], the Stability was determined as 0.1 days. Besides, the bioavailability in data set [7] was less than 20%.
Regarding `COc1cccc(S(=O)(=O)NCc2ccc(Oc3ncnc4cc(OC)c(OC)cc34)cc2)c1`, the IC50 in data set [1] is greater than 1000 nM; in data set [2], greater than 10000 nM; in data set [4], greater than 1000 nM; in data set [5] it was greater than 1000 nM. Further, in data set [3], the inhibition result is “Active”.
For `COc1cccc(COc2ccc(Oc3ncnc4cc(OC)c(OC)cc34)cc2)c1`, the IC50 in data set [1] was 20 nM; in data set [2], 128 nM; in data set [4] it was 20 nM; in data set [5] it was 300 nM. The inhibition entry in data set [3] was “Active”.
With `CCn1cc(NC(=O)Cc2ccc(Oc3ncnc4cc(OC)c(OC)cc34)cc2)cn1`, the IC50 in data set [1] is 10 nM; in data set [2] it was 29 nM; in data set [4], 3 nM; in data set [5], greater than 800 nM. Moreover, in data set [3], the inhibition result was “Active”.
On to `COc1cccc(NC(=O)Cc2ccc(Nc3ncnc4cc(OC)c(OC)cc34)cc2)c1`, for which the IC50 is greater than 60 nM in data set [1], 175 nM in data set [2], 10 nM in data set [4] and greater than 1000 nM in data set [5]. Moreover, the inhibition result in data set [3] is “Active”.
The matching figures for `COc1cc2ncnc(Oc3ccc(CC(=O)Nc4cn[nH]c4)cc3)c2cc1OC`: greater than 800 nM, greater than 10000 nM, greater than 2000 nM, greater than 1000 nM and “Active”.
The matching figures for `COc1cccc(C(=O)NCc2ccc(Oc3ncnc4cc(OC)c(OC)cc34)cc2)c1`: greater than 1000 nM, 6140 nM, 300 nM, greater than 1000 nM and “Active”.
Turning to `COc1cccc(NC(=O)NCc2ccc(Oc3ncnc4cc(OC)c(OC)cc34)cc2)c1`, the IC50 in data set [1] was 8 nM; in data set [2], 177 nM; in data set [4], 9 nM; in data set [5], greater than 1000 nM. The inhibition entry in data set [3] is “Active”.

These data come from ChEMBL document CHEMBL1938371, “Discovery of AZD2932, a new Quinazoline Ether Inhibitor with high affinity for VEGFR-2 and PDGFR tyrosine kinases” (Bioorg Med Chem Lett, 2012).
